Assays:
Format in all cases: in vivo, male Wistar rats
iNOS = iNOS expression by immunohistochemistry (confirmed by western blot of retina extracts)
Procedure: (§1) A group of 55 male Wistar rats, average weight 300-350 g, were housed in controlled light and temperature with unlimited access to food and water. 20 animals were submitted to intraocular injection of 0.5 mM, 2 mM, 3.5 mM, 5 mM mildronate, 15 µl in physiological solution, to standardize experimental conditions (data not shown). A group of 5 animals were submitted to intraocular injection of 2% methylcellulose (MTC), 15 µl in physiological solution. MTC is a molecule capable of mechanically blocking the outflow of aqueous humor leading to ocular hypertension.
(§2) Thirty animals were randomly separated into 3 experimental groups: rats from first group received mildronate 5 mM; rats from second group received mildronate 2 mM; rats from third group received mildronate 2 mM + L-carnitine 0.6 mM, 15 µl in physiological solution; all controlateral eyes were used as control.
(§3) After local anesthesia with 0.4% oxybuprocaine eye drops (Novesina™, Novartis, Basel, Switzerland) and after induction with ether, animal were injected in the posterior chamber of the right eye with solutions described above.
(§4) 24 hours after the intraocular injection, rats were given general anesthesia by intra-peritoneal injection of 500 pl sodium-thiopental solution (Farmotal™, Pharmacia & Upjohn, USA) in saline. They were then sacrificed by carotid bleeding and eyeballs were removed.
iNOS expression was detected with a rabbit polyclonal anti-iNOS antibody (Santa Cruz) (1:50), followed by a green fluorescent goat anti-rabbit IgG Alexa Fluor® (Molecular Probes) secondary antibody. […]
(§5) The observations were made under a fluorescence microscope and pictures taken by computerized image acquisition. […]

Caspase-3 = Caspase-3 expression by immunohistochemistry (confirmed by western blot of retina extracts)
Procedure: as §1, §2, §3, §4
Caspase-3 expression was detected with a rabbit polyclonal anti-caspase-3 antibody (Santa Cruz) (1:100), followed by a green fluorescent goat anti-rabbit IgG Alexa Fluor® (Molecular Probes) secondary antibody. […]
as §5

optic nerve and retina = assay: Cellular morphology of optic nerve and retina sections after intraocular injection; conditions: 24 hours
Procedure: as §1, §2, §3
24 hours after the intraocular injection, rats were given general anesthesia by intra-peritoneal injection of 500 pl sodium-thiopental solution (Farmotal™, Pharmacia & Upjohn, USA) in saline. They were then sacrificed by carotid bleeding and eyeballs were removed. […]

[1] = tested on: RGCs and astrocytes cells of the optic nerve; assay: TUNEL assay (DNA damage) on eye sections after intraocular injection; conditions: 24 hours
Procedure: as §1, with “hypertension. […]” for “hypertension.”
The sections (thickness of 10 µm), left to dry at room temperature for 30 min, were subjected to the following treatments: rehydration through a descending alcohol series (100°, 95°, 75°; 2 min each); incubation with protease 20 µg/mL in Triton X-100 to 0.1% at 37°C for 30 min; washes with 1X PBS for 2 min; incubation with TUNEL reagent (In Situ Cell Death Detection Kit, AP/ROCHE), containing 1/10 in volume of terminal deoxynucleotidyl transferase and the remaining fraction of nucleotides labeled with a fluorescent chromophore, 10 µl per section at 37°C for 1h. […] The observations were made under a fluorescence microscope and pictures were taken by computerized image acquisition.

Question: What does the source list for C[N+](C)(C)NCCC(=O)[O-] [mildronate, 3-(2,2,2-trimethylhydrazinium)propionate]?
Answer: iNOS expression (iNOS; 2 mM mildronate, optic nerve and retina, with respect to 5 mM mildronate-treated specimens): mild decrease of iNOS expression; iNOS expression (iNOS; 5 mM mildronate, 24 hours, glial retinal cells and astrocytes of optic nerve, compared to control): high levels of iNOS; NO levels and iNOS immunolocalization (iNOS; summary statement, dose not stated): increased NO levels and iNOS immunolocalization; Caspase-3 expression (Caspase-3; 2 mM mildronate, optic nerve and retina): mild decrease of positivity; Caspase-3 expression (Caspase-3; 5 mM mildronate, astrocytes and retinal cells): high caspase-3 levels; Apoptosis of retinal ganglion cells and optic nerve astrocytes (Caspase-3; summary statement, 24 hours after treatment): showed apoptosis; Cellular morphology of optic nerve (optic nerve and retina; mildronate 5 mM, 15 µl intraocular injection, vs control eye): fibers do not run longitudinally, the papilla shows an excavation; Cellular morphology of retina (optic nerve and retina; mildronate treated animals, intraocular injection): picnotic and/or vacuolated nuclei and fragmented chromatin; DNA damage (TUNEL fluorescence due to DNA fragmentation) ([1]; mildronate 2 mM): slight positive fluorescence; DNA damage (TUNEL fluorescence due to DNA fragmentation) ([1]; mildronate 5 mM, RGCs and astrocytes of the optic nerve): strong fluorescence

Source: patent EP2842557A1, “Mildronate in ophthalmic disorders” (SIGMA-TAU Industrie Farmaceutiche Riunite S.p.A., priority 2013, dated 2015)
